Patent US8722580B2, “Agent for inhibiting cytokinin signaling” (Sumitomo Chemical Company, Limited, priority 2006, dated 2014)

Assays:
Arabidopsis thaliana [1] = assay: Root growth-promoting activity test (Example 22); type: in vivo; details: test final concentration 0.625 ppm (highest root growth rate); main root length vs control section, 22° C., 10 days
Method in brief: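 Arabidopsis thaliana seeds (10-20 per tube) grown in sterile Enshi standard medium containing compound at 0.001 ppm to 10 ppm final (DMSO vehicle), 22 °C, 10 days in light. Main root length measured, eight repeats averaged; root growth rate (%) = treated/control mean main root length ×100.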

cytokinin receptor CRE1 [2] = molecular target: T1, cytokinin receptor CRE1 (Arabidopsis thaliana, UniProt Q9C5U0, S567G/T1018A); assay: Inhibition of intracellular signaling from plant-derived cytokinin receptor, growth of transformed yeast cell TM182-CRE1; type: cell-based; details: trans-zeatin 0.6 ppm, chemical substance 2 ppm; for Relative growth rate (%) in test section of test substance to control section, Transformed cell TM182-CRE1: 30° C., 24 hours, turbidity OD 600; for Activity (%) of test substance for inhibiting intracellular signaling from plant-derived cytokinin receptor of cell: = 100 − relative growth rate of TM182-CRE1
T1 construct: expressed in transfected cells; host or cells: Saccharomyces cerevisiae TM182 (sln1Δ) transformed with p415CYC-CRE1
Method in brief: (§1)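 Relative growth % is derived from blank-corrected OD600 against DMSO wells after 24 h at 30° C, with inhibition given as 100 minus that value. Cells were set to OD600=0.1 with 0.6 ppm trans-zeatin and 2 ppm test substance: CRE1 strain in DOLU+Glu, p415CYC1 toxicity control in DOLU+Gal.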

cytokinin receptor CRE1 [3] = molecular target: T1, cytokinin receptor CRE1; type: binding; details: radiolabel 2IP 10 nM; test substance 10 μM
Method: As the cytokinin labeled with a radioisotope of hydrogen, tritium so as to become highly radioactive, [3H]N-6-(isopent-2-enyl)Adenine manufactured by Amersham Biosciences (hereinafter, referred to as radiolabel 2IP) was used.
First, 100 μg of the membrane protein fraction of the transformed cell TM182-p415CYC1, a radiolabel 2IP dilution at a predetermined concentration with a phosphate buffer and 1 μl of a test substance dilution at a predetermined concentration with DMSO were mixed in a phosphate buffer to prepare 100 μl of a reaction liquid. Next, the reaction liquid was allowed to stand in ice for 1 hour and then filtered with a glass filter GF/B (manufactured by Whatman) to collect a membrane protein fraction of the transformed cell TM182-p425GPD-CRE1. The glass filter was immersed in a liquid scintillation cocktail Ultima Gold (manufactured by PerkinElmer Co., Ltd.), and radioactivity was measured by a liquid scintillation counter. […] In order to eliminate influence of radioactivity due to nonspecific binding of the radiolabel 2IP, a value of radioactivity obtained in the test using the membrane protein fraction of the transformed cell TM182-p425GPD was subtracted from a value of radioactivity obtained in the test using the membrane protein fraction of the transformed cell TM182-p425GPD-CRE1.

Arabidopsis thaliana [4] = assay: Root growth-promoting activity test (Example 9); type: in vivo; details: main root length vs control section, 22° C., 10 days
Method in brief: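 Compounds at 0.001–10 ppm final (added in DMSO) were mixed into Enshi medium, and Arabidopsis thaliana seeds were cultured in it for 10 days at 22° C under light. Root growth rate (%) is the treated mean main-root length divided by the control mean, from eight repeats.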

[5] = system: transformed cell TM182-p415CYC1; assay: Control growth test with transformed yeast cell TM182-p415CYC1 (toxicity to yeast); type: cell-based; details: trans-zeatin 0.6 ppm; chemical substance 2 ppm; 30° C., 24 hours; turbidity OD 600
Method in brief: as §1

rice [6] = assay: Rice stand establishment-promoting activity by seed treatment, direct seeding on flooded field (Example 20); type: in vivo, Oryza sativa japonica Nipponbare; details: for Stand establishment rate (%) on day 23 after sowing: Blank slurry 76.7
Method: (§2) Seeds of rice (Oryza sativa japonica Nipponbare) were treated with the chemical substance Ic3-1 (which inhibits intracellular signaling from a plant-derived cytokinin receptor of a cell) selected in Example 7, and were grown under direct seeding conditions. Then, a stand establishment rate was examined, and thus a rice stand establishment-promoting activity of the chemical substance was evaluated.
(§3) First, a Blank slurry solution containing 5% (v/v) Color Coat Red (manufactured by BECKER UNDERWOOD), 5% (v/v) CF-Clear (manufactured by BECKER UNDERWOOD) and 0.42% (v/v) Maxim-XL (manufactured by Syngenta) was prepared. In 1.3 ml of the Blank slurry solution, 6.25 mg, 12.5 mg, 25 mg or 50 mg of the chemical substance Ic3-3 was dissolved. Seeds were treated with the solution in an amount of 1.3 ml per 50 g of seeds (each corresponding to 0.125 mg, 0.25 mg, 0.5 mg and 1 mg/g seed) using a Hege11 seed treating device (manufactured by Hans-Ulrich Hege).
Then, a concrete pot (50 cm×50 cm) placed outdoors was flooded at a flooding depth of 5 cm, and 50 seeds per pot were sown. On day 23 after sowing, the number of seedlings whose leaf apex appeared on the water surface was examined. […] [Stand establishment rate (%)]=[Number of seedlings whose leaf apex appears on the water surface]/[Number of sown seeds]×100

rice [7] = assay: Root growth-promoting activity using rice, soil drenching (Example 14); type: in vivo, Oriza sativa japonica Nipponbare; details: soil drenched with 10 ppm solution, 500 μl per well
Method: With respect to the chemical substance Ic3-3, a root growth promoting activity was measured using rice (Oriza sativa japonica Nipponbare).
First, an acetone solution containing a predetermined concentration of the chemical substance was prepared and then 100-fold diluted with distilled water to 10 ppm (containing 1% acetone) to obtain a chemical substance solution. Seeds were immersed in water for 2 days to stimulate germination. The seeds were sowed in a 288-well plug tray (3 seeds per well), and then soil was drenched with the above chemical substance solution in an amount of 500 μl per well. After covering with soil, the plug tray was put in a plastic bag and then placed in an air-conditioned room (dark place at 30° C.) for 3 days. After removing the plastic bag from the plug tray, the plug tray was placed under light conditions of light/dark=16 h/8 h for 4 days while the bottom was irrigated at all times. Thus, rice seeds were cultivated to obtain grown rice. The resulting rice roots were washed and the total root length was analyzed using a root length measurement image analyzer WinRHIZO (manufactured by Regent Instruments).

rice [8] = assay: Rice tillering-promoting activity by seed treatment, direct seeding on dry field (Example 21); type: in vivo, Oryza sativa japonica Nipponbare; details: seed treatment 0.25 mg/g seed; day 30 after sowing
Method: as §2, with “on dry field-conditions.” for “conditions.”, “the number of tillers” for “a stand establishment rate”, “tillering-promoting” for “rice stand establishment-promoting”
as §3, with “solution,” for “solution, 6.25 mg,”, “12.5” for “12.5 mg, 25 mg or 50”, “(corresponding” for “(each corresponding”, “to” for “to 0.125 mg,”, “0.25” for “0.25 mg, 0.5 mg and 1”
The, 20 seeds per pot of the treated seeds were sown in a 1/5000a Wagner pot at a depth of 1 cm and then cultured in a greenhouse. On day 10 after sowing, water was charged at a flooding depth of 5 cm and culture was continued. On day 30 after sowing, the number of tillers was examined.

T1 sequence (Q9C5U0 24-1080 S567G/T1018A): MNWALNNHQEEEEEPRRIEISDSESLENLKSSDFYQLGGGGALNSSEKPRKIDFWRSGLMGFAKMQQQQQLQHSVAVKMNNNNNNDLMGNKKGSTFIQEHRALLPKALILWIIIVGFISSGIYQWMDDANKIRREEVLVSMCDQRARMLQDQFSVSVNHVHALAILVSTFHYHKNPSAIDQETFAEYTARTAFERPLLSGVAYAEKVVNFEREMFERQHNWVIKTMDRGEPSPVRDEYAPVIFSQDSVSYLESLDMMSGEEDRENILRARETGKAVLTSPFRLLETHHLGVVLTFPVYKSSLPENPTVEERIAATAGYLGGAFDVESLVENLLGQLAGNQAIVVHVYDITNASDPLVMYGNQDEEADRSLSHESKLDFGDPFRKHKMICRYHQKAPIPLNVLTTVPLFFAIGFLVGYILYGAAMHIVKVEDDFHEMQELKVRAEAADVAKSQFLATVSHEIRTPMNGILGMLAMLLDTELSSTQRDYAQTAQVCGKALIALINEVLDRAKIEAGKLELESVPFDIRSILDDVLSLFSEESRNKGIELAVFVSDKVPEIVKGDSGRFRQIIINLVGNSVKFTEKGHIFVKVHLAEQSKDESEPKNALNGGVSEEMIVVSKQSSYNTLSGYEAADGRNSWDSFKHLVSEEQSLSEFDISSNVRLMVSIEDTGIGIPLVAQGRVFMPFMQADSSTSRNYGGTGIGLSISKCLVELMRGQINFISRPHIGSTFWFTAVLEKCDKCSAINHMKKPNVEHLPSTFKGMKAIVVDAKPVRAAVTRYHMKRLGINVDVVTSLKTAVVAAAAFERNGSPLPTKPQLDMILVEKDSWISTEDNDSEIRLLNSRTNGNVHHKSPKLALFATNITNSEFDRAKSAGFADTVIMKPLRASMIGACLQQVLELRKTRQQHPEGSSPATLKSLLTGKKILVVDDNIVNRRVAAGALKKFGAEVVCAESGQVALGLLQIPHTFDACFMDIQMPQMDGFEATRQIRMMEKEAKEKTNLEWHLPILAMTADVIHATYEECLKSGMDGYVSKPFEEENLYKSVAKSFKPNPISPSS

Compound	Root growth-promoting activity (root growth rate) (Arabidopsis thaliana [1]) [%]	Relative growth rate (%) in test section of test substance to control section, Transformed cell TM182-CRE1 (cytokinin receptor CRE1 [2]) [%]	Activity (%) of test substance for inhibiting intracellular signaling from plant-derived cytokinin receptor of cell (cytokinin receptor CRE1 [2]) [%]	radioactivity of bound radiolabel 2IP compared with DMSO only or abscisic acid (cytokinin receptor CRE1 [3])	Root growth-promoting activity (root growth rate) (Arabidopsis thaliana [4]; test final concentration 0.625 ppm (concentration with highest root growth rate)) [%]	Relative growth rate (%) in test section of test substance to control section, Transformed cell TM182-p415CYC1 [5] [%]	Stand establishment rate (%) on day 23 after sowing (rice [6]; seed treatment 0.125 mg/g seed) [%]	Stand establishment rate (%) on day 23 after sowing (rice [6]; seed treatment 0.25 mg/g seed) [%]	Stand establishment rate (%) on day 23 after sowing (rice [6]; seed treatment 0.5 mg/g seed) [%]	Stand establishment rate (%) on day 23 after sowing (rice [6]; seed treatment 1 mg/g seed) [%]	stand establishment rate compared with the Blank slurry-treated section (rice [6]; seed treatment concentration 0.125 to 1 mg/g seed, day 23 after sowing)	Root growth-promoting activity (root growth rate) (Arabidopsis thaliana [4]; test final concentration 5 ppm (concentration with highest root growth rate)) [%]	root growth compared with the control section (UTC) (rice [7])	total root length (image analyzer WinRHIZO) (rice [7])	number of tillers per stock compared with the Blank slurry-treated section (rice [8])
OCCCCNc1nc(-c2ccccc2)c2cc(Cl)ccc2n1 [Ic3-4]	129.5	1.4	98.6	the radioactivity was decreased	129.5	106.4	–	–	–	–	–	–	–	–	–
C/C(=C\CNc1ncnc2nc[nH]c12)CO [trans-zeatin, reference compound]	–	–	–	the radioactivity was decreased	–	–	–	–	–	–	–	–	–	–	–
OCCCNc1nc(-c2ccccc2)c2cc(Cl)ccc2n1 [Ic3-3]	–	1.4	98.6	–	–	108.6	87.3	82.7	79.3	84.0	a stand establishment rate was increased	163.4	root growth was remarkably promoted	an increase of the total root length	the number of tillers per stock was increased
